US5236914A, “Derivatives of metalloporphyrins and application thereof for therapeutic purposes and in preparing hybrid molecules” (Centre National de la Recherche Scientifique (CNRS), priority 1988, dated 1993)
Entries after “also recorded” stand apart in the source; their conditions may differ. Read-outs that look alike come from different tables or passages of the source.

Key:
L1210 cells = assay: cytotoxic activity on murine leukemia cells of the L1210 type (inhibition of cell growth); type: cell-based; details: in vitro, only ID50 lower than 2 μM considered significant, read-out: ID50 (dose inhibiting 50% of cell growth)
Protocol: The cytotoxic activity was determined on murine leukemia cells of the L1210 type according to a method already described (by C. Paoletti, S. Cros eta al., Chem. Bio. Interact, 25, 45 […]. The effect on cell growth is expressed in terms of the dose inhibiting 50% of cell growth (ID50). Only the values of ID50 lower than 2 μM can be considered as being significant from the biological point of view.

DNA = details: in the presence of ferric ions, molecular oxygen and reducers; cited from earlier work
[1] = tested on: supercoiled form (form I) of the DNA of the bacteriophage OX 174; assay: nuclease activity: cleavage of supercoiled DNA observed by electrophoresis on agarose gel; type: biochemical; details: for Form I / Form II / Form III: 2 min with oxidant
Protocol: In fact, only 13% of form I remains at the end of 2 min in the presence of 250 nM of the metalloporphyrin and 5 μM of potassium hydrogen persulfate, KHSO5. The cleavages are single-strandcleavages since the form II (circular duplex DNA with one cleavage) accumulates before being converted to form III (linear duplex DNA). The experimental conditions and the details of the analytical method are given in the reference Fouquet et al. (cf. page 1).
1 μM of metalloporphyrin
pre-incubation time (DNA +
a) 20 min., b) 1 min. time of incubation

[2] = 250 nM metalloporphyrin; 5 μM KHSO5; pre-incubation a) 20 min
[3] = 250 nM metalloporphyrin; 5 μM KHSO5; pre-incubation b) 1 min
[4] = 1 μM metalloporphyrin; 5 μM KHSO5; pre-incubation a) 20 min

Manganese (III) 5-(4-hydroxyphenyl)-10, 15, 20-tris (N-methyl-4-pyridyl)-porphyrin tetraacetate [2 n) (Mn)]
IC50 (L1210 cells): 680 nM

bleomycin
nuclease activity in words (DNA): high nuclease activity

COc1ccc2[nH]c3c(C)c4cc[n+](CCCCC(=O)O)cc4c(C)c3c2c1 [5 b), N^2-(4-carboxybutyl)-9-methoxy-ellipticinium chloride]
IC50 (L1210 cells; Mus musculus): > 23000 nM

CC(=O)[O-].CC(=O)[O-].CC(=O)[O-].CC(=O)[O-].CC(=O)[O-].C[n+]1ccc(-c2c3nc(c(-c4cc[n+](C)cc4)c4ccc([n-]4)c(-c4cc[n+](C)cc4)c4nc(c(-c5ccc([N+](C)(C)C)cc5)c5ccc2[n-]5)C=C4)C=C3)cc1.[Mn+3] [1 h) (Mn), Manganese (III) 5-(4-trimethylaminophenyl)-10, 15, 20-tris (N-methyl-4 pyridyl)-porphyrin pentaacetate]
IC50 (L1210 cells): 540 nM | Form I [1, 2]: 13% | Form II [1, 2]: 78% | Form III [1, 2]: 9% | Form I [1, 3]: 63% | Form II [1, 3]: 37% | form I remaining at the end of 2 min ([1]; 250 nM metalloporphyrin, 5 μM potassium hydrogen persulfate KHSO5): 13% | Form II [1, 4]: 59% | Form III [1, 4]: 41% | efficacy of cleavage / nuclease activity in words ([1]; DNA in vitro, listed as 1h): very marked; also recorded: single-strandcleavages
